Source: patent publication US9828360B2 (Array BioPharma Inc., priority 2012, dated 2017)

Assays:
Assay in all cases: KinaseProfiler off-target kinase profiling
Format in all cases: biochemical
Conditions in all cases: 10 μM, ATP near Km
[1] = biological target: T1, TNK2 (Homo sapiens, UniProt Q07912)
T1 construct: purchased Millipore, Inc. (KinaseProfiler service)
How it was run: (§1)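 The compound was screened once at 10 μM against the full kinase panel, in duplicate. ATP was held near the Km for every kinase, and the averaged duplicate data are given as percent of control.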

[2] = biological target: T2, EGFR (Homo sapiens, UniProt P00533)
T2 construct: purchased Millipore, Inc. (KinaseProfiler service)
How it was run: as §1

[3] = biological target: T3, GRK5 (Homo sapiens, UniProt P34947)
T3 construct: purchased Millipore, Inc. (KinaseProfiler service)
How it was run: as §1

[4] = biological target: T4, GSK3alpha (Homo sapiens, UniProt P49840)
T4 construct: purchased Millipore, Inc. (KinaseProfiler service)
How it was run: as §1

[5] = biological target: T5, CAMK2d (Homo sapiens, UniProt Q13557)
T5 construct: purchased Millipore, Inc. (KinaseProfiler service)
How it was run: as §1

[6] = biological target: T6, NEK2 (Homo sapiens, UniProt P51955)
T6 construct: purchased Millipore, Inc. (KinaseProfiler service)
How it was run: as §1

[7] = biological target: T7, Rsk4 (Homo sapiens, UniProt Q9UK32)
T7 construct: purchased Millipore, Inc. (KinaseProfiler service)
How it was run: as §1

[8] = biological target: T8, EphB1 (Homo sapiens, UniProt P54762)
T8 construct: purchased Millipore, Inc. (KinaseProfiler service)
How it was run: as §1

[9] = biological target: T9, IKKalpha (Homo sapiens, UniProt O15111)
T9 construct: purchased Millipore, Inc. (KinaseProfiler service)
T9 sequence (O15111 whole entry): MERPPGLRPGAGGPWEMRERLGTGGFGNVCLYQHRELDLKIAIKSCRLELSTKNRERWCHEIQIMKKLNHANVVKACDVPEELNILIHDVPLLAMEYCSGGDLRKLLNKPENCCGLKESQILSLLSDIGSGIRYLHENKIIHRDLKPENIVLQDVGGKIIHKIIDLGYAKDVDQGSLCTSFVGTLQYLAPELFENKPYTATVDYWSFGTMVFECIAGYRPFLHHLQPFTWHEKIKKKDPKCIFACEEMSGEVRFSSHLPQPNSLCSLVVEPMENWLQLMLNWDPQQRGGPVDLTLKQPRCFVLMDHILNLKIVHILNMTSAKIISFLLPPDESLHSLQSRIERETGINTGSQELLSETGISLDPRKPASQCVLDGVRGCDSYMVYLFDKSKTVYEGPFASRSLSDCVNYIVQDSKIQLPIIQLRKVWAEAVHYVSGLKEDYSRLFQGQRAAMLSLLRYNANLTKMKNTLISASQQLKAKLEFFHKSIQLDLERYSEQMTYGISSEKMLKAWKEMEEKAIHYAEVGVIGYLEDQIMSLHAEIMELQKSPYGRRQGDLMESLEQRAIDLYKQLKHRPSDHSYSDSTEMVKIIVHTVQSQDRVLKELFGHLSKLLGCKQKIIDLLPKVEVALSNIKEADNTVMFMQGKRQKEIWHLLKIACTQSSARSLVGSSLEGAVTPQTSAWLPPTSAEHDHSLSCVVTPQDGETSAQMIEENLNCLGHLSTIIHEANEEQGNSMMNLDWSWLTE
How it was run: as §1

[10] = biological target: T10, PKD1 (Homo sapiens, UniProt Q15139)
T10 construct: purchased Millipore, Inc. (KinaseProfiler service)
How it was run: as §1

[11] = biological target: T11, eEF-2K (Homo sapiens, UniProt O00418)
T11 construct: purchased Millipore, Inc. (KinaseProfiler service)
How it was run: as §1

[12] = biological target: T12, PKCalpha (Homo sapiens, UniProt P17252)
T12 construct: purchased Millipore, Inc. (KinaseProfiler service)
How it was run: as §1

[13] = biological target: T13, EphB3 (Homo sapiens, UniProt P54753)
T13 construct: purchased Millipore, Inc. (KinaseProfiler service)
T13 sequence (P54753 34-998): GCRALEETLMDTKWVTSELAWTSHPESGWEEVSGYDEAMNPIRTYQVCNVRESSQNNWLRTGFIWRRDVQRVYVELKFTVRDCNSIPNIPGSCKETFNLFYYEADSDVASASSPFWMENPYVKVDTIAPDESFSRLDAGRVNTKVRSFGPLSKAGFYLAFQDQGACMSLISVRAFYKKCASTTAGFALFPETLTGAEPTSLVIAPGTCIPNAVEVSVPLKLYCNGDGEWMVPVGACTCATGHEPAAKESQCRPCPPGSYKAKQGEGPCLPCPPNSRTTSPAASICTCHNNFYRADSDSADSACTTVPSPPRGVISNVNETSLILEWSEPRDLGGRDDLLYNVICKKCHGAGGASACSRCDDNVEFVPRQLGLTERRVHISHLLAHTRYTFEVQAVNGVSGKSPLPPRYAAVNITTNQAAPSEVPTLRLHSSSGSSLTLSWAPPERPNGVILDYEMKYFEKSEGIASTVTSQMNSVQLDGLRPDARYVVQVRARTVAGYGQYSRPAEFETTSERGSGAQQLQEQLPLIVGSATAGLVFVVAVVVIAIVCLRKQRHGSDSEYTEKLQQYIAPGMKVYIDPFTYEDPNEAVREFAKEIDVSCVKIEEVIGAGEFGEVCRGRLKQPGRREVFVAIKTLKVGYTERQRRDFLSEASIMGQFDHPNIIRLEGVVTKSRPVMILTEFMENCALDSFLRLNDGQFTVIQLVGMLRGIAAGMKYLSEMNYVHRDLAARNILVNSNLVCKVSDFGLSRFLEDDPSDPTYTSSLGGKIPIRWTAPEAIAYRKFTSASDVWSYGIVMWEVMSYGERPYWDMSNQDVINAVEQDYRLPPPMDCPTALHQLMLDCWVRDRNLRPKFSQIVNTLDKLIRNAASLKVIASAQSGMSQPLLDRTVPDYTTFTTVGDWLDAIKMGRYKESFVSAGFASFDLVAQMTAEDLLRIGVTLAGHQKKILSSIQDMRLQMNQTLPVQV
How it was run: as §1

[14] = biological target: T14, DAPK1 (Homo sapiens, UniProt P53355)
T14 construct: purchased Millipore, Inc. (KinaseProfiler service)
How it was run: as §1

[15] = biological target: T15, CHK2 (Homo sapiens, UniProt O96017)
T15 construct: purchased Millipore, Inc. (KinaseProfiler service)
How it was run: as §1

[16] = biological target: T16, PhKgamma2 (Homo sapiens, UniProt P15735)
T16 construct: purchased Millipore, Inc. (KinaseProfiler service)
How it was run: as §1

[17] = biological target: T17, WNK2 (Homo sapiens, UniProt Q9Y3S1)
T17 construct: purchased Millipore, Inc. (KinaseProfiler service)
How it was run: as §1

[18] = biological target: T18, STK33 (Homo sapiens, UniProt Q9BYT3)
T18 construct: purchased Millipore, Inc. (KinaseProfiler service)
How it was run: as §1

[19] = biological target: T19, AKT1 (Homo sapiens, UniProt P31749)
T19 construct: purchased Millipore, Inc. (KinaseProfiler service)
How it was run: as §1

[20] = biological target: T20, DAPK2 (Homo sapiens, UniProt Q9UIK4)
T20 construct: purchased Millipore, Inc. (KinaseProfiler service)
T20 sequence (Q9UIK4 whole entry): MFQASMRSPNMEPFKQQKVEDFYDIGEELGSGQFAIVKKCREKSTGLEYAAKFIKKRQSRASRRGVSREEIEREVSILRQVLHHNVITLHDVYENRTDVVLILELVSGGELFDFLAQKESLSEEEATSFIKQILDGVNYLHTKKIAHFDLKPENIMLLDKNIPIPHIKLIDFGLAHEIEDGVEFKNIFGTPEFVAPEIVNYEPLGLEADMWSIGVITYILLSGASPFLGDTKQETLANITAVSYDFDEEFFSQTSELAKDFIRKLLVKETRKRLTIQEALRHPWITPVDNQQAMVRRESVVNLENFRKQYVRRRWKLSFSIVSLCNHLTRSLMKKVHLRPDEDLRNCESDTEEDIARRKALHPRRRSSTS
How it was run: as §1

[21] = biological target: T21, GRK6 (Homo sapiens, UniProt P43250)
T21 construct: purchased Millipore, Inc. (KinaseProfiler service)
How it was run: as §1

[22] = biological target: T22, CHK1 (Homo sapiens, UniProt O14757)
T22 construct: purchased Millipore, Inc. (KinaseProfiler service)
How it was run: as §1

[23] = biological target: T23, ERK2 (Homo sapiens, UniProt P28482)
T23 construct: purchased Millipore, Inc. (KinaseProfiler service)
How it was run: as §1

[24] = biological target: T24, PAK6 (Homo sapiens, UniProt Q9NQU5)
T24 construct: purchased Millipore, Inc. (KinaseProfiler service)
How it was run: as §1

[25] = biological target: T25, DDR2 (Homo sapiens, UniProt Q16832)
T25 construct: purchased Millipore, Inc. (KinaseProfiler service)
How it was run: as §1

[26] = biological target: T26, Fes (Homo sapiens, UniProt P07332)
T26 construct: purchased Millipore, Inc. (KinaseProfiler service)
How it was run: as §1

[27] = biological target: T27, mTOR/FKBP12 (Homo sapiens, UniProt P42345)
T27 construct: purchased Millipore, Inc. (KinaseProfiler service)
How it was run: as §1

[28] = biological target: T28, DMPK (Homo sapiens, UniProt Q09013)
T28 construct: purchased Millipore, Inc. (KinaseProfiler service)
How it was run: as §1

[29] = biological target: T29, SGK1 (Homo sapiens, UniProt O00141, S422D)
T29 construct: purchased Millipore, Inc. (KinaseProfiler service)
How it was run: as §1

[30] = biological target: T30, CSK (Homo sapiens, UniProt P41240)
T30 construct: purchased Millipore, Inc. (KinaseProfiler service)
How it was run: as §1

[31] = biological target: T31, EphA5 (Homo sapiens, UniProt P54756)
T31 construct: purchased Millipore, Inc. (KinaseProfiler service)
How it was run: as §1

[32] = biological target: T32, Ron (Homo sapiens, UniProt Q04912)
T32 construct: purchased Millipore, Inc. (KinaseProfiler service)
How it was run: as §1

[33] = biological target: T33, PKD2 (Homo sapiens, UniProt Q9BZL6)
T33 construct: purchased Millipore, Inc. (KinaseProfiler service)
How it was run: as §1

[34] = biological target: T34, EphA7 (Homo sapiens, UniProt Q15375)
T34 construct: purchased Millipore, Inc. (KinaseProfiler service)
T34 sequence (Q15375 28-998): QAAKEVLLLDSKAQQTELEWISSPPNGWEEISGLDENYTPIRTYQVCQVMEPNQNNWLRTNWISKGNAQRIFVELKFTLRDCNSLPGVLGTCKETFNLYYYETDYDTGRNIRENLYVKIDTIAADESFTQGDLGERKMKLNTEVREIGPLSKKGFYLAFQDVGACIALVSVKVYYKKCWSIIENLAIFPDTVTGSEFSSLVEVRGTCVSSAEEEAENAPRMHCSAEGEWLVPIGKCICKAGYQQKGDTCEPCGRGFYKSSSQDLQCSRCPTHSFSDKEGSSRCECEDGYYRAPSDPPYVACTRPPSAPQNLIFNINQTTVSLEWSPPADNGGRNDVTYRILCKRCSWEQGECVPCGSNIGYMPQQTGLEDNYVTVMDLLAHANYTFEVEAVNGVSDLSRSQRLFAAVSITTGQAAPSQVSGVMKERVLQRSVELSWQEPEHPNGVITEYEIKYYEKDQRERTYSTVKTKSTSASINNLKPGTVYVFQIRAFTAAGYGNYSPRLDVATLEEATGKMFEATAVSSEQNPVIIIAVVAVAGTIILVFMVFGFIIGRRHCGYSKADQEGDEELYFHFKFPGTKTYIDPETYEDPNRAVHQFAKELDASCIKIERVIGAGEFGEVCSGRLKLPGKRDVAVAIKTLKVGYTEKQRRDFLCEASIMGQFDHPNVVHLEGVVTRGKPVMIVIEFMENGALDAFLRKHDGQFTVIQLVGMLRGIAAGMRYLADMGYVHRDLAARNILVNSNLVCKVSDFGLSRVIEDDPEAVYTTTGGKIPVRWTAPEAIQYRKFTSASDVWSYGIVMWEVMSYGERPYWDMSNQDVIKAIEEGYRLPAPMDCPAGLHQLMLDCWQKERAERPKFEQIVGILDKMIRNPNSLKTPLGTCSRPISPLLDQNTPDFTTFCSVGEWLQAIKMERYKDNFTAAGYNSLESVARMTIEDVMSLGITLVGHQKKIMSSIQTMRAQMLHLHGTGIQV
How it was run: as §1

[35] = biological target: T35, PKCeta (Homo sapiens, UniProt P24723)
T35 construct: purchased Millipore, Inc. (KinaseProfiler service)
How it was run: as §1

[36] = biological target: T36, Flt3 (Homo sapiens, UniProt P36888)
T36 construct: purchased Millipore, Inc. (KinaseProfiler service)
How it was run: as §1

[37] = biological target: T37, TAO1 (Homo sapiens, UniProt Q7L7X3)
T37 construct: purchased Millipore, Inc. (KinaseProfiler service)
How it was run: as §1

[38] = biological target: T38, PAK4 (Homo sapiens, UniProt O96013)
T38 construct: purchased Millipore, Inc. (KinaseProfiler service)
How it was run: as §1

[39] = biological target: T39, PRK2 (Homo sapiens, UniProt Q16513)
T39 construct: purchased Millipore, Inc. (KinaseProfiler service)
T39 sequence (Q16513 whole entry): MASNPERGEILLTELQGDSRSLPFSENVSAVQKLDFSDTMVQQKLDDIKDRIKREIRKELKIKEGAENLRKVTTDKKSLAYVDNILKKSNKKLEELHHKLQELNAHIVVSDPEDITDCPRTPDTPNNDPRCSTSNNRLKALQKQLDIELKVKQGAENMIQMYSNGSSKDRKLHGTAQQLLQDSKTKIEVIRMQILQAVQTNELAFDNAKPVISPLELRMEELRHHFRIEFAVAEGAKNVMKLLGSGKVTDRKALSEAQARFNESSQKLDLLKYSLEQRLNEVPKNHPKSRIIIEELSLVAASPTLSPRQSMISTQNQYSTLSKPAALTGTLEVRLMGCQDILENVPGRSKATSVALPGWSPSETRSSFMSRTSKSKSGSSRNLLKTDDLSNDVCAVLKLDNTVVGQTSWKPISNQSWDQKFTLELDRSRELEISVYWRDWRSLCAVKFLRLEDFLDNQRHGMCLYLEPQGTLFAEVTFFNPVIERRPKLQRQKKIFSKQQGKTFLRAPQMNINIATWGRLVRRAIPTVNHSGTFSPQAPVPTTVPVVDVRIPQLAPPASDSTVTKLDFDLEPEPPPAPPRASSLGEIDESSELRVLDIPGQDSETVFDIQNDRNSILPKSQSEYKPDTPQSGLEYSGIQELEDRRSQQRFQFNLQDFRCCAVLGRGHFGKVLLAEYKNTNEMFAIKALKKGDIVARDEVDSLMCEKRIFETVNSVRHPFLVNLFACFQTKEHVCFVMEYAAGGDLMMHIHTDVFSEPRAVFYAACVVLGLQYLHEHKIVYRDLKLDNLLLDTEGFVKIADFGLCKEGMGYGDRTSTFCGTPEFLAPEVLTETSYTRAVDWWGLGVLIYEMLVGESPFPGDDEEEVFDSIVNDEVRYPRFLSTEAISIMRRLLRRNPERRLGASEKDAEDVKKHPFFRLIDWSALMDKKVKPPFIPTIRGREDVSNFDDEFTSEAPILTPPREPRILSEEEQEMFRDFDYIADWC
How it was run: as §1

[40] = biological target: T40, c-RAF (Homo sapiens, UniProt P04049, Y340D/Y341D)
T40 construct: purchased Millipore, Inc. (KinaseProfiler service)
How it was run: as §1

[41] = biological target: T41, ZAP-70 (Homo sapiens, UniProt P43403)
T41 construct: purchased Millipore, Inc. (KinaseProfiler service)
How it was run: as §1

T1 sequence (Q07912 whole entry): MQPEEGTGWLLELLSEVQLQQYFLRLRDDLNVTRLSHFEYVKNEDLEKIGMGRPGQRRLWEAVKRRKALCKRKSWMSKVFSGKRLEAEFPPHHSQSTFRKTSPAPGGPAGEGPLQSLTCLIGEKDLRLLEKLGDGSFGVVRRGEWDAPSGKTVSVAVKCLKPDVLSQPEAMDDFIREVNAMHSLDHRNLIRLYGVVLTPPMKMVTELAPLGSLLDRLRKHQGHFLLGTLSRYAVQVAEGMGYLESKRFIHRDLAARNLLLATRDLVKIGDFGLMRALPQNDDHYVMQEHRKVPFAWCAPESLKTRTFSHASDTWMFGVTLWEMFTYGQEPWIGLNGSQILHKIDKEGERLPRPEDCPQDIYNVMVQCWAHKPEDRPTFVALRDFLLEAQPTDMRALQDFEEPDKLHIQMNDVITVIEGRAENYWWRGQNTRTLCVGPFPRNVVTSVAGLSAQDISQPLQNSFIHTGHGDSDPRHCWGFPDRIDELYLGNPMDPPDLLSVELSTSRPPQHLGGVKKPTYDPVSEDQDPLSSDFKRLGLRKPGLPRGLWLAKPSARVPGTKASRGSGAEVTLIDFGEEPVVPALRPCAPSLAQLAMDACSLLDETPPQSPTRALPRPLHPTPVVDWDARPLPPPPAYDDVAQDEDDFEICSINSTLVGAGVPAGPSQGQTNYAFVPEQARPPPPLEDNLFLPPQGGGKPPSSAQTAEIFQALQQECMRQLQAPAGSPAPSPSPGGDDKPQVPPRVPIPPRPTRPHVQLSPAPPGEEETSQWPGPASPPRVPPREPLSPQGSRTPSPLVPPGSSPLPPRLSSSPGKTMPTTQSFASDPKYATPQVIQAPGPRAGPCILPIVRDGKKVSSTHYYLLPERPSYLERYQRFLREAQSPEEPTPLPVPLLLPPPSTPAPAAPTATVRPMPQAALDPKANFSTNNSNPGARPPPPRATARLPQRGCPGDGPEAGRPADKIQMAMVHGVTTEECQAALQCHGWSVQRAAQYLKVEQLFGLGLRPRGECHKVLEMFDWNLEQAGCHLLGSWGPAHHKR

Compound: COCCN1C[C@@H](NC(=O)Nc2sc(C(C)C)nc2-c2ccccc2)[C@H](c2ccccc2)C1 [Example 48, 1-(2-isopropyl-4-phenylthiazol-5-yl)-3-((3S,4R)-1-(2-methoxyethyl)-4-phenylpyrrolidin-3-yl)urea]
- Avg POC [1]: 99.5% of control
- Avg POC [2]: 111% of control
- Avg POC [3]: 106.5% of control
- Avg POC [4]: 120.5% of control
- Avg POC [5]: 99% of control
- Avg POC [6]: 112% of control
- Avg POC [7]: 116% of control
- Avg POC [8]: 107.5% of control
- Avg POC [9]: 112% of control
- Avg POC [10]: 94.5% of control
- Avg POC [11]: 116.5% of control
- Avg POC [12]: 106.5% of control
- Avg POC [13]: 119% of control
- Avg POC [14]: 114.5% of control
- Avg POC [15]: 107.5% of control
- Avg POC [16]: 110% of control
- Avg POC [17]: 92.5% of control
- Avg POC [18]: 110% of control
- Avg POC [19]: 117% of control
- Avg POC [20]: 99% of control
- Avg POC [21]: 101% of control
- Avg POC [22]: 110% of control
- Avg POC [23]: 101% of control
- Avg POC [24]: 94% of control
- Avg POC [25]: 101.5% of control
- Avg POC [26]: 86.5% of control
- Avg POC [27]: 111.5% of control
- Avg POC [28]: 106% of control
- Avg POC [29]: 125% of control
- Avg POC [30]: 108% of control
- Avg POC [31]: 107% of control
- Avg POC [32]: 105.5% of control
- Avg POC [33]: 115.5% of control
- Avg POC [34]: 101% of control
- Avg POC [35]: 93% of control
- Avg POC [36]: 99% of control
- Avg POC [37]: 101% of control
- Avg POC [38]: 134.5% of control
- Avg POC [39]: 111% of control
- Avg POC [40]: 106% of control
- Avg POC [41]: 100.5% of control
